# Reference: EP4745134A1 (Jiangsu Yahong Meditech Co., Ltd., priority 2023, dated 2025)
# Target: PRMT5-MTA (Homo sapiens, UniProt O14744)
# Test: Enzymatic inhibitory activity against PRMT5-MTA (AlphaScreen)
# Type: biochemical
# Conditions: not given
# Protocol: The AlphaScreen method was used to detect the enzymatic inhibitory activity of the compounds against PRMT5-MTA. 1 x Methyltransferase assay buffer IV (signalchem) was prepared as a solution for diluting each component for the enzymatic reaction. PRMT5/[…] protein of a final concentration of 1 nM, […] (sigma) of a final concentration of 1 uM and S-(5'-adenosine)-L-methionine chloride dihydrochloride (sigma) of a final concentration of 2.5 uM were mixed, then incubated for 30 minutes at room temperature, and transferred to an OptiPlate-384 well plate (PerkinElmer) at a volume of 6 uL per well, for which no PRMT5/[…] protein was added to the control wells. The test compound was 3-fold serially diluted into 10 concentrations, starting from a concentration of 1000 nM, and the series of diluted compounds were added to all wells except the control wells in the well plate using Tecan D300e. The well plate was subjected to centrifugation for 1 minute at 1000 rpm in a centrifuge, and then incubated for 15 minutes at 23°C. Histone H4 substrate of a final concentration of 5 nM was added to the well plate at 4 uL per well, centrifuged for 1 minute at 1000 rpm in a centrifuge, then placed in an incubator at 23°C and reacted for 45 minutes. Anti-histone H4 (symmetrical dimethyl R3) antibody (Abcam) was incubated with 50 ug/mL of AlphaScreen Protein A Acceptor beads (PerkinElmer) for 10 minutes at room temperature beforehand, and then added to the well plate at a volume of 10 uL per well. The mixture was reacted for 1 hour at room temperature. 50 Ug/mL of AlphaScreen Streptavidin Donor beads (PerkinElmer) was added at 10 uL per well, and reacted for 1 hour at room temperature. The signal values were detected for the well plate through the Alpha method using an Envision multifunctional microplate-reader, and the IC50 values for inhibition of the compounds on PRMT5/MET50 enzyme activity were calculated in Xlfit 5.0 software. Table 1. IC50 values for inhibition of the compounds on PRMT5+MTA enzyme activity
# Sequence of PRMT5-MTA (O14744 whole entry): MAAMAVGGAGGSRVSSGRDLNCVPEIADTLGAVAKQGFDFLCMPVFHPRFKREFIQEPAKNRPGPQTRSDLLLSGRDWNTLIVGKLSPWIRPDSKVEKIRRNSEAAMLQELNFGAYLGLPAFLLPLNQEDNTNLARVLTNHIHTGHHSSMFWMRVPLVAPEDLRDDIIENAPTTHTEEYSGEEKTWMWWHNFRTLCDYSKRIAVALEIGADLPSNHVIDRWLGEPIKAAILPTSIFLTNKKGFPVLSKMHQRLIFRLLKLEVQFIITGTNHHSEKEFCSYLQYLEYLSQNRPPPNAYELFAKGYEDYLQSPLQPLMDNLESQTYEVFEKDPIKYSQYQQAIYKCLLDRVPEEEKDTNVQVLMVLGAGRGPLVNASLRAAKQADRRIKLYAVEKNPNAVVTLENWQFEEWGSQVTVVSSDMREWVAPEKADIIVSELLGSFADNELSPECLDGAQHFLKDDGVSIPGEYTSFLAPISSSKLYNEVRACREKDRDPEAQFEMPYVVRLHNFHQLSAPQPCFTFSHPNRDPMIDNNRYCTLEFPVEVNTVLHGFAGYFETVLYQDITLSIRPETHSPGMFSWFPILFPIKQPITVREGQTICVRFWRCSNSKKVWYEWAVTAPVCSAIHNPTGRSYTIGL
# Sequence of PRMT5-MTA (Q9BQA1 whole entry partner): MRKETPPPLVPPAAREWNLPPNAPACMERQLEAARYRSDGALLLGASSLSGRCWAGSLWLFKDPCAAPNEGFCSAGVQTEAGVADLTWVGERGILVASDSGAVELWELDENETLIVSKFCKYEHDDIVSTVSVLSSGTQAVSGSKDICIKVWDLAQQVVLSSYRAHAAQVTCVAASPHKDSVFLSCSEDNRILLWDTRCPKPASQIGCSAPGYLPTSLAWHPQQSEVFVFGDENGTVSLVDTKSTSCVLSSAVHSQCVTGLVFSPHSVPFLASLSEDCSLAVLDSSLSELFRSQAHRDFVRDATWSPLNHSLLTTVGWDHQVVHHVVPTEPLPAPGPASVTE
row,Compound,IC50
1,Cc1cc2nc(N)c3cnn(C)c3c2cc1C(=O)N(C)N1c2ccccc2CC1C (stereo not shown) [Example 280],4 nM

# Same assay, conditions: read-out: IC50
row,Compound,IC50
1,"Cc1cc2nc(N)c3c(cnn3C)c2cc1C(=O)N(Cc1ccc(C(F)(F)F)cn1)N(C)c1ncccn1 [Example 81, 4-amino-N',3,7-trimethyl-N'-(pyrimidin-2-yl)-N-((5-(trifluoromethyl)pyridin-2-yl)methyl)-3H-pyrazolo[3,4-c]quinoline-8-carbohydrazide]",5.8 nM
2,"Cc1cc2cc(C(=O)N(Cc3ncc(Br)cn3)N(C)c3ncccc3F)ccc2nc1N [Example 89, 2-amino-N-((5-bromopyrimidin-2-yl)methyl)-N'-(3-fluoropyridin-2-yl)-N',3-dimet hylquinoline-6-carbohydrazide]",2 nM
3,"Cc1cc2cc(C(=O)N(Cc3ccc(C(F)(F)F)cn3)N(C)c3ncc(S(C)(=O)=O)cn3)ccc2nc1N [Example 96, 2-amino-N',3-dimethyl-N'-(5-(methylsulfonyl)pyrimidin-2-yl)-N-((5-(trifluoromethyl)pyridin-2-yl)methyl)quinoline-6-carbohydrazide]",2.6 nM
4,"Cc1cc2cc(C(=O)N(Cc3ccc(C(F)(F)F)cn3)N(CC(F)(F)F)c3ncccn3)ccc2nc1N [Example 98, 2-amino-3-methyl-N'-(pyrimidin-2-yl)-N' -(2,2,2-trifluoroethyl)-N-((5-(trifluoromethyl)pyridin-2-yl)methyl)quinoline-6-carbohydrazide]",17.2 nM
5,"Cc1cc2cc(C(=O)N(Cc3cccc(C(F)(F)F)n3)N(C)c3ncccn3)ccc2nc1N [Example 103, 2-amino-N',3-dimethyl-N'-(pyrimidin-2-yl)-N-((6-(trifluoromethyl)pyridin-2-yl)methyl)quinoline-6-carbohydrazide]",2.9 nM
6,"Cc1cc2cc(C(=O)N(Cc3ccc(C(F)(F)F)cn3)N(C)c3ncccc3Br)ccc2nc1N [Example 106, 2-amino-N'-(3-bromopyridin-2-yl)-N',3-d imethyl-N-((5-(trifluoromethyl)pyridin-2-yl)methyl)quinoline-6-carbohydrazide]",1.9 nM
7,"CCN(C(=O)c1ccc2nc(N)c3c(c2c1)COC3)N(C)c1ccc(C(F)(F)F)cc1 [Example 115, 4-amino-N-ethyl-N-methyl-N-(4-(trifluoromethyl)phenyl)-1,3-dihydrofuro[3,4-c]quinoline-8-carbohydrazide]",2 nM
8,"Cc1cc2cc(C(=O)N(Cc3ccc(C(F)(F)F)cn3)n3c(=O)n(C)c4cccnc43)ccc2nc1N [Example 118, 2-amino-3-methyl-N-(1-methyl-2-oxo-1,2-dihydro-3H-imidazo[4,5-b]pyridin-3-yl)-N-((5-(trifluoromethyl)pyridin-2-yl)methyl)quinoline-6-carboxamide]",2.3 nM
9,"CCc1cccnc1N(C)N(Cc1ccc(C(F)(F)F)cn1)C(=O)c1ccc2nc(N)c(C)cc2c1 [Example 134, 2-amino-N'-(3-ethylpyridin-2-yl)-N',3-dimethyl-N-((5-(trifluoromethyl)pyridin-2-yl)methyl)quinoline-6-carbohydrazide]",2.3 nM
10,"Cc1cc2cc(C(=O)N(Cc3ccc(C(F)(F)F)cn3)N(C)c3ncccc3C(C)C)ccc2nc1N [Example 136, 2-amino-N'-(3-isopropylpyridin-2-yl)-N', 3-dimethyl-N-((5-(trifluoromethyl)pyridin-2-yl)methyl)quinoline-6-carbohydrazide]",3.6 nM
11,"Cc1cc2cc(C(=O)N(Cc3ccc(-c4scnc4C)cn3)N(c3nccc4nccnc34)C3CC3)ccc2nc1N [Example 165, 2-amino-N'-cyclopropyl-3-methyl-N-((5-(4-methylthiazol-5-yl)pyridin-2-yl)methy 1)-N'-(pyrido[3,4-b]pyrazin-5-yl)quinoline-6-carbohydrazide]",3.3 nM
12,"Cc1cc2cc(C(=O)N(Cc3ccc(C4CC4)cc3F)N(C)c3nccc4nccnc34)ccc2nc1N [Example 167, 2-amino-N-(4-cyclopropyl-2-fluorobenzy 1)-N',3-dimethyl-N'-(pyrido[3,4-b]pyrazin-5-yl)quinoline-6-carbohydrazide]",1.3 nM
13,"Cc1cc2cc(C(=O)N(Cc3ccc(-c4nn[nH]n4)cn3)N(C)c3ncccn3)ccc2nc1N [Example 245, N-((5-(2H-tetrazol-5-yl)pyridin-2-yl)methyl)-2-amino-N',3-dimethyl-N'-(pyrimidin-2-y 1)quinoline-6-carbohydrazide]",9.5 nM
14,"Cc1cc2cc(C(=O)N(Cc3ccc(-c4cnn(C(F)(F)F)c4)cn3)Nc3ncccn3)ccc2nc1N [Example 249, 2-amino-3-methyl-N'-(pyrimidin-2-yl)-N-((5-(1-(trifluoromethyl)-1H-pyrazol-4-yl)pyridin-2-yl)methyl)quinoline-6-carbohy drazide]",40 nM
15,"Cc1cc2nc(N)c3cnn(C)c3c2cc1C(=O)N(Cc1ccc(-c2scnc2C)cn1)N(c1ncccn1)C1CC1 [Example 251, 4-amino-N'-cyclopropyl-1,7-dimethyl-N-((5-(4-methylthiazol-5-yl)pyridin-2-yl)methyl)-N'-(pyrimidin-2-yl)-1H-pyrazolo[4 ,3-c]quinoline-8-carbohydrazide]",4.1 nM
16,"Cc1ncsc1-c1ccc(CN(C(=O)c2ccc3nc(N)c4cnn(C)c4c3c2)N(c2ncccn2)C2CC2)nc1 [Example 252, 4-amino-N'-cyclopropyl-1-methyl-N-((5-(4-methylthiazol-5-yl)pyridin-2-yl)methyl)-N'-(pyrimidin-2-yl)-1H-pyrazolo[4,3-c] quinoline-8-carbohydrazide]",4.8 nM
17,"Cc1ncsc1-c1ccc(CN(C(=O)c2cc3c(cc2F)nc(N)c2cnn(C)c23)N(c2ncccn2)C2CC2)nc1 [Example 253, 4-amino-N'-cyclopropyl-7-fluoro-1-methyl-N-((5-(4-methylthiazol-5-yl)pyridin-2-yl)methyl)-N'-(pyrimidin-2-yl)-1H-pyraz olo[4,3-c]quinoline-8-carbohydrazide]",6.1 nM
18,"Cc1cc2cc(C(=O)N(Cc3ccc(C4=CCNCC4)cn3)N(C)c3ncccn3)ccc2nc1N [Example 262, 2-amino-N',3-dimethyl-N'-(pyrimidin-2-yl)-N-((1',2',3',6'-tetrahydro-[3,4'-bipyridine]-6-yl)methyl)quinoline-6-carbohydrazide]",8.6 nM
19,"Cc1cc2cc(C(=O)N(Cc3ccc(C(F)(F)F)cn3)N(C)c3ncc(I)cn3)ccc2nc1N [Example 267, 2-amino-N'-(5-iodopyrimidin-2-yl)-N',3-dimethyl-N-((5-(trifluoromethyl)pyridin-2-yl)methyl)quinoline-6-carbohydrazide]",1.8 nM
20,"Cc1cc2nc(N)c3cnn(C)c3c2cc1C(=O)N(C)N1CCCc2cccnc21 [Example 268, 4-amino-N-(3,4-dihydro-1,8-naphthyridin-1(2H)-yl)-N,1,7-trimethyl-1H-pyrazolo[4,3-c]quinoline-8-carboxamide]",3.5 nM
21,"Cc1cc2cc(C(=O)N(Cc3ccc(C(F)(F)F)cn3)N(c3ncccn3)C3CC3)c(F)cc2nc1N [Example 269, 2-amino-N'-cyclopropyl-7-fluoro-3-methyl-N'-(pyrimidin-2-yl)-N-((5-(trifluoromethyl)pyridin-2-yl)methyl)quinoline-6-car bohydrazide]",5.7 nM
22,"Cc1cc2cc(C(=O)N(Cc3ccc(C(F)(F)F)cn3)N(C)c3nccc4cnn(C)c34)ccc2nc1N [Example 275, 2-amino-N',3-dimethyl-N'-(1-methyl-1H-pyrazolo[3,4-c]pyridin-7-yl)-N-((5-(trifluoromethyl)pyridin-2-yl)methyl)quinoline-6-carbohydrazide]",2.9 nM
23,"Cc1cc2cc(C(=O)N(Cc3cnc(Br)cn3)N(C)c3ncccn3)ccc2nc1N [Example 282, 2-amino-N-((5-bromopyrazin-2-yl)methyl)-N',3-dimethyl-N'-(pyrimidin-2-yl)quinoline-6-carbohydrazide]",4.5 nM
24,"Cc1cc2cc(C(=O)N(Cc3ccc(C4(O)COC4)cn3)N(C)c3ncccn3)ccc2nc1N [Example 285, 2-amino-N-((5-(3-hydroxyoxetan-3-yl)pyridin-2-yl)methyl)-N',3-dimethyl-N'-(pyrimidin-2-yl)quinoline-6-carbohydrazide]",2 nM
25,"Cc1cc2cc(C(=O)N(Cc3ccc(C(C)(C)O)cn3)N(C)c3ncccn3)ccc2nc1N [Example 290, 2-amino-N-((5-(2-hydroxyprop-2-yl)pyridin-2-yl)methyl)-N',3-dimethyl-N'-(pyrimidin-2-yl)quinoline-6-carbohydrazide]",3.7 nM
26,"Cc1cc2cc(C(=O)N(Cc3ccc(C(F)(F)F)cn3)N(C)c3ncc(P(C)(C)=O)cn3)ccc2nc1N [Example 296, 2-amino-N'-(5-(dimethylphosphoryl)pyrimidin-2-yl)-N',3-dimethyl-N-((5-(trifluoromethyl)pyridin-2-yl)methyl)quinoline-6-carbohydrazide]",1.3 nM
27,"Cc1cc2cc(C(=O)N(Cc3ccc(P(C)(C)=O)cn3)N(C)c3ncccn3)ccc2nc1N [Example 297, 2-amino-N-((5-(dimethylphosphoryl)pyridin-2-yl)methyl)-N',3-dimethyl-N'-(pyrimidin-2-yl)quinoline-6-carbohydrazide]",6.4 nM
